From PMC12699035, “Exploring market-approved azoles as potential breast cancer therapeutics targeting the VEGFR-2 biotarget” (Scientific Reports, 2025)

Experiments:
MCF-10A cells = assay: Cytotoxicity against MCF-10A cells, MTT assay (five doses); type: cell-based; details: Homo sapiens, MCF-10A normal cells, five dose concentrations, n = 3, read-out: MCF-10A IC50 ± SD
VEGFR-2 = target: T1, VEGFR-2 (Homo sapiens, UniProt P35968); assay: VEGFR-2 kinase inhibition, luminescent VEGFR2 (KDR) kinase assay kit (BPS Bioscience # 40325); type: biochemical
T1 construct: purchased BPS Bioscience 40325
Procedure: Functionally, this pathway operates in autocrine and intracrine modes to promote cell proliferation, survival, and resistance to apoptosis through downstream effectors such as PI3K/AKT and p38 MAPK.
SIT, FLU and TNZ were tested using the five dose sigmoidal curves to determine the IC50 values. […] At the end of these experiment, anti-tumor potentiality was recorded using tumor weight (mg), tumor volume (mm^3), and the tumor inhibition ratio (TIR%). Hematological parameters of Hemoglobin (Hb, g/dL), RBC’s count (10^6/μL), and WBC’s count (10^3/μL) were investigated, along with histopathological and immunohistochemical staining of the VEGR2 protein.
Compounds Itraconazole. […] [12].

VEGF = assay: Immunohistochemical staining of VEGF in SEC tumor sections; type: in vivo, mice; details: IHC of SEC tumor
Description: VEGF has been considered a biomarker for VEGFR-2 bioactivity, as it binds to and activates this kinase receptor, playing a crucial role in angiogenesis. High VEGF levels are often associated with increased VEGFR-2 expression and activity, making VEGF a marker for VEGFR-2's function and tumor growth. […] The staining intensity is strong (+ 3), with dark brown cytoplasmic staining in most tumor cells. The immunoreactive score (IRS), calculated by multiplying the staining intensity score and the percentage of positive cells, is 9–12, indicating a high level of VEGF expression. This intense VEGF expression correlates with the presence of numerous irregular and dilated blood vessels in the tumor microenvironment.
The paraffin-infiltrated tissue was sliced into thin sections (4-6 μm) using a microtome and floated in a water bath. The sections were then mounted onto charged slides and left to dry overnight. The use of charged slides ensures the sections adhere properly to the slide. To carry out antibody staining, the paraffin wax was removed from the sample, and the tissue was rehydrated. The paraffin was eliminated by placing the tissue sections in three containers of xylene for 5 minutes each. Rehydration began by immersing the sections in two containers of 100% ethanol for 10 minutes each, followed by two containers of 95% ethanol for 10 minutes each. Finally, to complete the rehydration, the sections were washed twice in deionized water for 5 minutes each.
For antigen retrieval, the slides are heated in 10 mM Tris/1 mM EDTA, pH 9.0, kept at a sub-boiling temperature for 18 minutes, and then allowed to cool at room temperature for 30 minutes. For chromogenic staining detection, the sections are rinsed in deionized water three times for 5 minutes each, and then the endogenous peroxidase activity in the tissue sections is quenched to prevent high background staining by incubating the sections in 3% hydrogen peroxide for 10 minutes. Afterward, the sections are washed twice in deionized water for 5 minutes each, followed by a single wash in wash buffer for 5 minutes. A hydrophobic pen is used to carefully draw a large circle around the sample, ensuring it doesn’t touch the sample, creating a hydrophobic boundary to achieve optimal antibody staining quality. To prevent non-specific antibodies from binding to the tissue, each section is blocked with 100–400 µl of blocking solution for 1 hour at room temperature in a humidified chamber. The blocking solution was discarded, and 100–400 µl of diluted primary antibody was applied. […]
The slides were incubated overnight at 4°C in a humidified chamber. […] Then, 100–400 µl of Signal Stain DAB was applied to each section and monitored closely for 1–10 minutes until an acceptable staining intensity was achieved. […]

T1 sequence (P35968 20-1356): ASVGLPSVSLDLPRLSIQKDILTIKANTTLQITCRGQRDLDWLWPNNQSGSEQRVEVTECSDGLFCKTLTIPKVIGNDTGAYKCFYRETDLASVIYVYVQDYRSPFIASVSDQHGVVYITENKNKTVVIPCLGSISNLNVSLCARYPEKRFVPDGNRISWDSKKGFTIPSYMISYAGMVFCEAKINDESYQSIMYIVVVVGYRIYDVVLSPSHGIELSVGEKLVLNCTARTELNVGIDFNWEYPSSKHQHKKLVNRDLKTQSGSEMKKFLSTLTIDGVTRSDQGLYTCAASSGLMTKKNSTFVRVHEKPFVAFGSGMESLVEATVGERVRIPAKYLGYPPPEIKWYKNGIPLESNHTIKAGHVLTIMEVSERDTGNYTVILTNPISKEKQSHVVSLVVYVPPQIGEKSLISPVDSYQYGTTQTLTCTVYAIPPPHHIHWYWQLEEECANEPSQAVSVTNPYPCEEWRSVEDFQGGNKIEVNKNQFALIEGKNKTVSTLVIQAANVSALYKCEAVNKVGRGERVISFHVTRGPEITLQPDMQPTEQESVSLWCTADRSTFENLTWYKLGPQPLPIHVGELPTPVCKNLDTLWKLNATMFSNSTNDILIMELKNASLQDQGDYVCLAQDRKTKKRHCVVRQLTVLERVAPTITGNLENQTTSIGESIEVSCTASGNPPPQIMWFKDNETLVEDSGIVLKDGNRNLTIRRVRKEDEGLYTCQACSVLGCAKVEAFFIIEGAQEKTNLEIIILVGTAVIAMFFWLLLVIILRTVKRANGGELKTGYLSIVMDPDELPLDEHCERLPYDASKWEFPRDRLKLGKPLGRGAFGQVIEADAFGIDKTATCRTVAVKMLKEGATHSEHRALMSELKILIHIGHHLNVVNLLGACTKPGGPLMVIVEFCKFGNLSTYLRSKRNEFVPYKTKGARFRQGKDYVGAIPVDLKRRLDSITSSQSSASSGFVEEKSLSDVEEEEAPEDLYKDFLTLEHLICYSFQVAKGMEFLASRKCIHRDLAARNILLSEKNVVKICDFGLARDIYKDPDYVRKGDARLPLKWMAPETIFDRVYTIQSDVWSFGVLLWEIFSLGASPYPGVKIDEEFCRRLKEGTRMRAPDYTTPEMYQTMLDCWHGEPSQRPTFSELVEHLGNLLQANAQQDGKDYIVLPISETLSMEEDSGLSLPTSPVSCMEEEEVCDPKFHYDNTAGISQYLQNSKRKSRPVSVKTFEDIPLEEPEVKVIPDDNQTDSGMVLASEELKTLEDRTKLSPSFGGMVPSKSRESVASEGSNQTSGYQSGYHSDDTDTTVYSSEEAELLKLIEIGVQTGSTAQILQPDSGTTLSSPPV

CCC(C)n1ncn(-c2ccc(N3CCN(c4ccc(OCC5COC(Cn6cncn6)(c6ccc(Cl)cc6Cl)O5)cc4)CC3)cc2)c1=O (centres unmarked) [Itraconazole, itraconazole] was tested, and the IC50 (MCF-10A cells) was 49.6 ± 2.5 µM, the “VEGFR-2 enzyme inhibition LogIC50 (Fig. 3)” value (VEGFR-2; dose-response curve fit, unit not given) was 1.515 and the IC50 (VEGFR-2; enzyme inhibition, dose-response, non-linear regression, read-out: VEGFR-2 inhibition IC50) was 32.7 µM. For the same compound, the “immunoreactive score (IRS)” value (VEGF; scale 0-12, SEC control 9–12) was 4–8 and the “percentage of VEGF-positive tumor cells” value (VEGF; SEC control 80–90%) was 40–60%.
